Measured values: article PMC3651166, “Differential Cytotoxic Activity of a Novel Palladium-Based Compound on Prostate Cell Lines, Primary Prostate Epithelial Cells and Prostate Stem Cells” (PLoS ONE, 2013)
“And” between values parts separate entries of the source, which are not always exact repeats. Equal entries are not always repeated. “Also recorded” adds a separate entry of the source.

How the values were obtained:
PNT1A, PNT2-C2, BPH-1 = test: MTS assay, average over normal/benign cell lines; type: cell-based, human; settings: average of PNT1A
Description: (§1) In this study, six different prostate cell lines (PNT1A, PNT2-C2, BPH-1, PC-3, LNCaP, P4E6) were used (Table 1). These cell lines encompass the spectrum of cellular differentiation status (basal, intermediate and luminal phenotypes), as well as the spectrum of normal, early cancer and late cancer. BPH-1 is derived from benign prostate hyperplasia (BPH), while PNT2-C2 and PNT1A are derived from normal prostate. PC-3, LNCaP and P4E6 are cancer cell lines. LNCaP, PNT2-C2, PNT1A were grown in RPMI medium with 10% FCS (foetal calf serum); PC-3 was grown in Ham’s F-12 medium with 7% FCS; BPH-1 was grown in RPMI medium with 5% FCS; P4E6 was grown in KSFM (Keratinocyte serum free medium) with 2% FCS. No antibiotics were used in any media. The cells were incubated at 37°C in a humidified atmosphere containing 5% CO2.
(§2) This assay was performed for the initial screening of the effect of the Pd complex on the cell lines and the whole cell population of primary cultures. The CellTiter 96® Aqueous One Solution Cell Proliferation Assay kit (G3580, Promega, Madison, WI, USA) was used and the manufacturer’s instructions were followed. Briefly, after treating cells that were seeded at a density of 5,000 cells per well in a 96-well plate in triplicate for a desired period (24 h, 48 h, 72 h), 20 µL of reagent was added to each well. Following 2.5 h incubation at 37°C, the absorbance was read at 485 nm using a plate reader (PolarStar Optima, BMG Labtech, UK). Percent viability was calculated using the formula (% Viability = [(Sample Absorbance/Control Absorbance)]×100.
(§3) MTS and ATP assays were performed in triplicate and data presented as the mean +/− standard deviation. IC50 values (Table 3 and Table 4) were calculated from graphs of transformed data following application of the nonlinear regression (curve fit) that represents the log(inhibitor) ‘v’ normalized response (GraphPad Prism software) (Supplementary Figures S1 and S2). For significance calculations, the Wilcoxon rank sum test was used (Sigmaplot). […]

[1] = system: PNT2-C2, BPH-1, P4E6, PC-3 and LNCaP; test: Flow cytometry cell cycle analysis, cell lines; type: cell-based, human
Description: (§4) Following drug treatment, floating cells in the media were pooled with adherent cells, which were collected by trypsinisation. Following centrifugation cells were resuspended in 0.5 ml PBS. Cells were fixed in 2 ml ice cold 70% ethanol, which was added in a dropwise fashion while vortexing. Cells were incubated on ice for 30 min then washed in 5 ml PBS and resuspended in 0.4 ml PBS. Following storage at 4°C overnight, 50 µl of RNAse (1 mg/ml) and 50 µl of propidium iodide (1 mg/ml) were added to the cells. Following incubation at 37°C for 30 min the cells were analysed for 2N and 4N DNA content on a flow cytometer (Cyan ADP Analyser, Beckman Coulter).

cleaved caspase-3 = test: Western blotting for apoptosis, cell lines; type: cell-based, human
Description: (§5) Following drug treatment, cell lysates were harvested using Cytobuster Protein Extraction Reagent (71009, EMD Millipore, Darmstadt, Germany) with protease inhibitors (cOmplete, EDTA-free Protease Inhibitor Cocktail Tablets, Roche Applied Science, UK). 20 µg of protein extract were loaded on 12% SDS-PAGE gels and wet-transferred to a PVDF membrane. Antibodies used include: monoclonal anti-β-actin 1∶5000 (A5316, Sigma-Aldrich), anti-LC3B 1∶3000 (Ab51520, abcam), cleaved caspase-3 (Asp175) 1∶1000 (9661S, Cell Signaling Technology) and secondary antibodies were Rabbit anti-mouse-HRP 1∶10000 (P0260, Dako) and anti-rabbit IgG HRP-linked 1∶5000 (Cell Signaling Technology Inc. 7074S). Kaleidoscope protein marker was run on each gel (161-0324, Bio-Rad).

[2] = system: stem cells (SCs), transit-amplifying cells (TAs) and committed basal cells (CBs); test: ATP viability assay on fractionated primary cells; type: cell-based
Description: Epithelial cells from human tumour or BPH materials were cultured for several weeks and the cells treated at very low passages. The cultured basal cell population were trypsinized, resuspended in SCM and then plated on BSA-blocked collagen I-coated plates. […] The cells that attached to substratum were trypsinised, resuspended in MACs buffer and incubated with CD133-microbeads (Cat no. 130-050-801, Miltenyi Biotec Inc., Auburn, CA, USA). MACs MS columns (Cat no. 130-042-201, Miltenyi Biotec Inc., Auburn, CA, USA) were used to select the CD133^+ and CD133^− cells. Finally, the three cell populations were obtained: stem cells (SCs) - α2β1integrin^hi/CD133^+, transit-amplifying cells (TAs) - α2β1integrin^hi/CD133^− and committed basal cells (CBs) - α2β1integrin^lo.
This assay was employed for the bioluminescent determination of the adenosine 5′-triphosphate (ATP) released from fractionated living cells (cancer stem cells, transit amplifying cells and committed basal cells). As ATP is rapidly degraded in dead cells, high intracellular levels provide a selective assay for living cells. The ATP-bioluminescent somatic cell assay kit (FLASC, Sigma-Aldrich, Saint Louis, MO, USA) was used with protocol modifications. Briefly, 50–500 cells per well were seeded in a collagen-coated 96 well plate in triplicate. After treating cells for 72 h, 150 µL of medium was removed from each well. 50 µL of cell extraction reagent was added into each original well. Following 20 min incubation at RT, 50 µL of cell extract was transferred to a white 96-well plate. Finally, 50 µL of ATP assay mix solution was added into the wells and luminescence was read using a plate reader (PolarStar Optima, BMG Labtech, UK). Percent viability was calculated using the formula (% Viability = [(Sample RLU/Control RLU)]x100 where RLU refers to relative light units.

P4E6, PC-3, LNCaP = test: MTS assay, average over cancer cell lines; type: cell-based, human; settings: average of P4E6, PC-3, LNCaP
Description: as §1, §2, §3

[3] = system: primary prostate epithelial cells; test: Flow cytometry cell cycle analysis, primary cells; type: cell-based, human; settings: primary cells
Description: as §4

[4] = system: PNT1A, PNT2-C2, BPH-1, PC-3, LNCaP, P4E6; test: MTS assay, panel of six prostate cell lines; type: cell-based, human; settings: 100 µM, 72 h
Description: as §1
This assay was performed for the initial screening of the effect of the Pd complex on the cell lines and the whole cell population of primary cultures. The CellTiter 96® Aqueous One Solution Cell Proliferation Assay kit (G3580, Promega, Madison, WI, USA) was used and the manufacturer’s instructions were followed. […] Following 2.5 h incubation at 37°C, the absorbance was read at 485 nm using a plate reader (PolarStar Optima, BMG Labtech, UK). Percent viability was calculated using the formula (% Viability = [(Sample Absorbance/Control Absorbance)]×100. […]

LC3-II = test: Western blotting for autophagy, cell lines; type: cell-based, human
Description: as §5

[PdCl(terpy)](sac)⋅2 H2O [Pd complex]
IC50 (PNT1A, PNT2-C2, BPH-1; PNT2-C2, BPH-1, 24 h): 15.8 µM | IC50 (PNT1A, PNT2-C2, BPH-1; PNT2-C2, BPH-1, 48 h): 6.77 µM | IC50 (PNT1A, PNT2-C2, BPH-1; PNT2-C2, BPH-1, 72 h): 0.38 µM and 0.383 µM | sub-G1 DNA content (cell death) ([1]; PC3 cells): almost no change | sub-G1 DNA content (cell death) ([1]; all cell lines except PC3): increase in cells with sub-G1 DNA content | S and G2 peaks ([1]; normal cells (BPH-1, PNT2-C2)): reduction in the S and G2 peaks | cleaved caspase-3 (apoptosis) (cleaved caspase-3; BPH-1, PNT2-C2 and P4E6 cells): clear induction of cleaved caspase-3 | cleaved caspase-3 (apoptosis) (cleaved caspase-3; LNCaP cells): only observed after treatment with 25 µM Pd complex | cleaved caspase-3 (apoptosis) (cleaved caspase-3; PC3 cells): no evidence of cleaved caspase-3 | toxicity compared to cisplatin ([2]; 6 µM range, ATP assay): comparable toxicity to cisplatin | anti-growth effect compared to 25 µM Pd complex and 25 µM etoposide ([2]; 6.25 µM, 72 h, ATP assay, SC, TA, CB): less than 25 µM Pd complex but still more cytotoxic than 25 µM etoposide | cytotoxicity compared to 25 µM etoposide ([2]; 25 µM, 72 h, ATP assay, stem cells (also TA, CB)): significantly more cytotoxic; also recorded: much more potent cytotoxic activity than etoposide | cell killing ([2]; 50 µM, data not shown): killed all cells | IC50 (P4E6, PC-3, LNCaP; 24 h): 75.4 µM | IC50 (P4E6, PC-3, LNCaP; 48 h): 23.6 µM | IC50 (P4E6, PC-3, LNCaP; 72 h): 11.5 µM | cells with more than 4N DNA content [3]: increase in cells with more than 4N DNA content | sub-G1 content [3]: clear dose response showing increase in sub-G1 content | growth inhibition of all cell lines [4]: almost completely | LC3-II expression (autophagy) (LC3-II; BPH-1, PNT2-C2 and P4E6 cells): clear increase in the expression of LC3-II | levels of LC3-I and LC3-II (LC3-II; LNCaP and PC3 cells, any treatment): did not change dramatically or in a dose-dependent fashion
